Reference: patent publication US11440909B2, “10H-phenothiazine ferroptosis inhibitor as well as the preparative method and the use thereof” (CHENGDU HENGHAO INVESTMENT CO. LIMITED, priority 2018, dated 2022)

system: rat middle cerebral artery occlusion (MCAO) stroke model; test: Rat middle cerebral artery occlusion (MCAO) stroke model, different doses; assay type: in vivo; settings: positive drug butylphthalide 10 mg/kg, after 24 h of reperfusion
Procedure: By rat middle cerebral artery occlusion (MCAO) stroke model (also called cerebral ischemia model), the therapeutic effect of the compound of the present invention on ischemic stroke in SD rats at different doses was studied. Male SD rats were selected and induced anesthesia by 2-3.0% isoflurane. The middle cerebral artery was blocked by the thread plug method, resulting in rat ischemia model; the ischemic rats were placed at room temperature and kept their body temperature being 37° C. 60 minutes after ischemia onset, the rats were scored by Bederson neurobehavioral scale to determine whether the model was successfully made. 90 min after ischemia onset, the thread plug was pulled out for reperfusion. […] After 24 h of reperfusion, the animals were scored by NSS scale to evaluate neurological deficit. And then the animals were dissected, brains were collected and subjected to TTC stain. […] The percentage of the weight of the infarct tissue based on the weight of the whole brain was regarded as the infarct range (%), and the inhibition rate (%) of each drug treatment group was calculated based on the infarct range.

Work on `CCCCC1OC(=O)c2ccccc21` (stereo not drawn) [Positive drug, butylphthalide, reference compound] yielded an NSS score of 8.500 ± 1.401.

same assay, conditions: positive drug butylphthalide 10 mg/kg, tail vein injection, 24 h of reperfusion, TTC stain

With `CCCCC1OC(=O)c2ccccc21` (stereo not drawn) [Positive drug, butylphthalide, reference compound] the Infarct weight was 0.193 ± 0.075 g.

same assay, conditions: positive drug butylphthalide 10 mg/kg; infarct tissue weight as % of whole brain weight

Work on `CCCCC1OC(=O)c2ccccc21` (stereo not drawn) [Positive drug, butylphthalide, reference compound] yielded an Infarct range of 13.292 ± 4.476 %.

same assay, conditions: positive drug butylphthalide 10 mg/kg; versus model group infarct range

In the case of `CCCCC1OC(=O)c2ccccc21` (stereo not drawn) [Positive drug, butylphthalide, reference compound], the “Inhibition rate of cerebral infarction” value is reported as 24.477%.

system: fibrosarcoma cell line HT1080; test: Ferroptosis screening model (MTT method), Erastin-induced ferroptosis; assay type: cell-based, human; settings: HT1080, ferroptosis inducer Erastin, 72 h, average of three tests, read-out: EC50
In short: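 HT1080 cells adhered 24 h, then received compound plus Erastin ([…] final) for 72 h at 37 °C, 5% CO2, in triplicate. Viability by MTT with SDS solubilisation, absorbance at 570 nm; inhibition of ferroptosis fitted to give EC50.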

Going from `CC(c1ccc2c(c1)Nc1ccccc1S2)S(=O)(=O)N1CCN(c2ccccc2)CC1` (stereo not drawn) [Compound C28, 2-(1-((4-phenylpiperazin-1-yl)sulfonyl)ethyl)-10H-phenothiazine] to `COc1ccccc1N1CCN(S(=O)(=O)C(C)c2ccc3c(c2)Nc2ccccc2S3)CC1` (stereo not drawn) [Compound C49, 2-(1-((4-(2-methoxylphenyl)piperazin-1-yl)sulfonyl)ethyl)-10H-phenothiazine], the EC50 rises from 142 nM to 228 nM (1.6-fold). The first is the more potent here.

Compared with `CC(c1ccc2c(c1)Nc1ccccc1S2)S(=O)(=O)N1CC[C@H](CNC(=O)OC(C)(C)C)C1` (stereo partly drawn) [Compound C33, t-butyl (((3R)-1-((1-(10H-phenothiazin-2-yl)ethyl)sulfonyl)pyrrolin-3-yl)methyl)carbamate], `C=C(c1cnc(N2CCOCC2)nc1)c1ccc2c(c1)Nc1ccccc1S2` [Compound C51, 4-(5-(1-(10H-phenothiazin-2-yl)ethenyl)pyrimidin-2-yl)morpholine] is 2.3-fold lower in EC50: 327 nM for the first, 143 nM for the second. The second is the more potent here.

`CCOC(=O)c1ccc(NC2CCCCC2)c(N)c1` [Fer-1, Ferrostatin-1, reference compound] was tested, and the EC50 was 60 nM.

same assay, conditions: Homo sapiens, HT-1080, 72 h, HT1080, ferroptosis inducer Erastin, 72 h, average of three tests, read-out: EC50

Compared with `CC(=O)N1CCCN(S(=O)(=O)C(C)c2ccc3c(c2)Nc2ccccc2S3)CC1` (stereo not drawn) [Compound C25, 1-(4-((1-(10H-phenothiazin-2-yl)ethyl)sulfonyl)-1,4-homopiperazin-1-yl)-1-ethanone], `CCCCN1CCN(S(=O)(=O)C(C)c2ccc3c(c2)Nc2ccccc2S3)CC1` (stereo not drawn) [Compound C58, 2-(1-((4-butylpiperazin-1-yl)sulfonyl)ethyl)-10H-phenothiazine] is 2.3-fold lower in EC50: 405 nM for the first, 178 nM for the second.

First: CC(c1ccc2c(c1)Nc1ccccc1S2)S(=O)(=O)N1CCN(C(c2ccccc2)c2ccccc2)CC1 (stereo not drawn) [Compound C26, 2-(1-((4-diphenylmethylpiperazin-1-yl)sulfonyl)ethyl)-10H-phenothiazine]
Second: CC(c1ccc2c(c1)Nc1ccccc1S2)S(=O)(=O)N1CCN(c2ccc(F)cc2)CC1 (stereo not drawn) [Compound C34, 2-(1-((4-(4-fluorophenyl)piperazin-1-yl)sulfonyl)ethyl)-10H-phenothiazine]
The EC50 of the first is 1.7-fold higher: 388 nM for the first, 233 nM for the second.

`CC(c1ccc2c(c1)Nc1ccccc1S2)S(=O)(=O)N1CCN(NC(=O)OC(C)(C)C)CC1` (stereo not drawn) [Compound C27, t-butyl 4-((1-(10H-phenothiazin-2-yl)ethyl)sulfonyl)piperazin-1-carbamate] and `CC(c1ccc2c(c1)Nc1ccccc1S2)S(=O)(=O)N1CCC(NC(=O)OC(C)(C)C)CC1` (stereo not drawn) [Compound C37, t-butyl (1-((1-(10H-phenothiazin-2-yl)ethyl)sulfonyl)piperidin-4-yl)carbamate] are within 1.5-fold of each other in EC50: 256 nM for the first, 271 nM for the second.

Going from `CC(c1ccc2c(c1)Nc1ccccc1S2)S(=O)(=O)N1CCC[C@H](NC(=O)OC(C)(C)C)C1` (stereo partly drawn) [Compound C29, t-butyl ((3S)-1-((1-(10H-phenothiazin-2-yl)ethyl)sulfonyl)piperidin-3-yl) carbamate] to `CC(c1ccc2c(c1)Nc1ccccc1S2)S(=O)(=O)N1CCC[C@@H](NC(=O)OC(C)(C)C)C1` (stereo partly drawn) [Compound C32, t-butyl ((3R)-1-((1-(10H-phenothiazin-2-yl)ethyl)sulfonyl)piperidin-3-yl)carbamate], the EC50 rises from 228 nM to 586 nM (2.6-fold).

`CC(c1ccc2c(c1)Nc1ccccc1S2)S(=O)(=O)N1CCC(O)(c2ccc(Cl)cc2)CC1` (stereo not drawn) [Compound C30, 1-((1-(10H-phenothiazin-2-yl)ethyl)sulfonyl)-4-(4-chlorophenyl)-4-piperidinol] and `CC(c1ccc2c(c1)Nc1ccccc1S2)S(=O)(=O)N1CCN(Cc2ccc(Cl)cc2)CC1` (stereo not drawn) [Compound C36, 2-(1-((4-(4-chlorobenzyl)piperazin-1-yl)sulfonyl)ethyl)-10H-phenothiazine] are within 1.5-fold of each other in EC50: 95 nM for the first, 129 nM for the second.

`CC(c1ccc2c(c1)Nc1ccccc1S2)S(=O)(=O)N1CC[C@H](NC(=O)OC(C)(C)C)C1` (stereo partly drawn) [Compound C31, t-butyl ((3S)-1-((1-(10H-phenothiazin-2-yl)ethyl)sulfonyl)pyrrolin-3-yl)carbamate] and `CC(c1ccc2c(c1)Nc1ccccc1S2)S(=O)(=O)N1CCCC(CNC(=O)OC(C)(C)C)C1` (stereo not drawn) [Compound C35, t-butyl ((1-((1-(10H-phenothiazin-2-yl)ethyl)sulfonyl)piperidin-3-yl)methyl)carbamate] are within 1.5-fold of each other in EC50: 399 nM for the first, 342 nM for the second.

First: CC(c1ccc2c(c1)Nc1ccccc1S2)S(=O)(=O)N1CCCC(CO)C1 (stereo not drawn) [Compound C38, (1-((1-(10H-phenothiazin-2-yl)ethyl)sulfonyl)piperidin-3-yl)methanol]
Second: CC(c1ccc2c(c1)Nc1ccccc1S2)S(=O)(=O)N1CCCC(O)C1 (stereo not drawn) [Compound C40, 1-((1-(10H-phenothiazin-2-yl)ethyl)sulfonyl)piperidin-3-ol]
The EC50 of the first is 1.6-fold higher: 229 nM for the first, 142 nM for the second. The second is the more potent here.

First: CCOC(=O)[C@@H]1CCCN(S(=O)(=O)C(C)c2ccc3c(c2)Nc2ccccc2S3)C1 (stereo partly drawn) [Compound C39, ethyl (3R)-1-((1-(10H-phenothiazin-2-yl)ethyl)sulfonyl)piperidin-3-formate]
Second: CC1CCCN(S(=O)(=O)C(C)c2ccc3c(c2)Nc2ccccc2S3)C1 (stereo not drawn) [Compound C46, 2-(1-((3-methylpiperidin-1-yl)sulfonyl)ethyl)-10H-phenothiazine]
The EC50 of the first is 1.6-fold higher: 244 nM for the first, 156 nM for the second. The second is the more potent here.

Going from `CC(c1ccc2c(c1)Nc1ccccc1S2)S(=O)(=O)N1CC[C@H](O)C1` (stereo partly drawn) [Compound C41] to `CC1CCN(S(=O)(=O)C(C)c2ccc3c(c2)Nc2ccccc2S3)CC1` (stereo not drawn) [Compound C45, 2-(1-((4-methylpiperidin-1-yl)sulfonyl)ethyl)-10H-phenothiazine], the EC50 rises from 117 nM to 226 nM (1.9-fold). The first is the more potent here.

`CC(c1ccc2c(c1)Nc1ccccc1S2)S(=O)(=O)N1CCC[C@@H]1C` (stereo partly drawn) [Compound C42] and `CC(c1ccc2c(c1)Nc1ccccc1S2)S(=O)(=O)N1C[C@@H](C)O[C@@H](C)C1` (stereo partly drawn) [Compound C44, (2S,6R)-4-((1-(10H-phenothiazin-2-yl)ethyl)sulfonyl)-2,6-dimethylmorpholine] are within 1.5-fold of each other in EC50: 335 nM for the first, 426 nM for the second.

Compared with `CC(c1ccc2c(c1)Nc1ccccc1S2)S(=O)(=O)N1CCC(N2CCCCC2)CC1` (stereo not drawn) [Compound C43, 2-(1-([1,4′-dipiperidin]-1′-ylsulfonyl)ethyl)-10H-phenothiazine], `CC(c1ccc2c(c1)Nc1ccccc1S2)S(=O)(=O)N1CCC(C(N)=O)CC1` (stereo not drawn) [Compound C47, 1-((1-(10H-phenothiazin-2-yl)ethyl)sulfonyl)piperidin-4-formamide] is 4.6-fold higher in EC50: 49 nM for the first, 225 nM for the second. The first is the more potent here.

Going from `CC1CN(S(=O)(=O)C(C)c2ccc3c(c2)Nc2ccccc2S3)CC(C)N1` (stereo not drawn) [Compound C48, 2-(1-((3,5-dimethylpiperazin-1-yl)sulfonyl)ethyl)-10H-phenothiazine] to `Cc1ccc(N2CCN(S(=O)(=O)C(C)c3ccc4c(c3)Nc3ccccc3S4)CC2)cc1` (stereo not drawn) [Compound C59, 2-(1-((4-(p-methylphenyl)piperazin-1-yl)sulfonyl)ethyl)-10H-phenothiazine], the EC50 rises from 35 nM to 142 nM (4.1-fold). The first is the more potent here.

Compared with `CC(c1ccc2c(c1)Nc1ccccc1S2)S(=O)(=O)N1CCN(c2ncccn2)CC1` (stereo not drawn) [Compound C52, 2-(1-((4-(pyrimidin-2-yl)piperazin-1-yl)sulfonyl)ethyl)-10H-phenothiazine], `CC(c1ccc2c(c1)Nc1ccccc1S2)S(=O)(=O)N1CCN(c2cnccn2)CC1` (stereo not drawn) [Compound C57, 2-(1-((4-(pyrazin-2-yl)piperazin-1-yl)sulfonyl)ethyl)-10H-phenothiazine] is 1.9-fold higher in EC50: 69 nM for the first, 129 nM for the second. The first is the more potent here.

Compared with `CC(c1ccc2c(c1)Nc1ccccc1S2)S(=O)(=O)N1CCN(c2ccc(C#N)cc2)CC1` (stereo not drawn) [Compound C53, 4-(4-((1-(10H-phenothiazin-2-yl)ethyl)sulfonyl)piperazin-1-yl)benzonitrile], `CC(c1ccc2c(c1)Nc1ccccc1S2)S(=O)(=O)N1CCN(c2ccc([N+](=O)[O-])cc2)CC1` (stereo not drawn) [Compound C55, 2-(1-((4-(4-nitrophenyl)piperazin-1-yl)sulfonyl)ethyl)-10H-phenothiazine] is 2.6-fold lower in EC50: 182 nM for the first, 70 nM for the second.

`COc1cccc(N2CCN(S(=O)(=O)C(C)c3ccc4c(c3)Nc3ccccc3S4)CC2)c1` (stereo not drawn) [Compound C54, 2-(1-((4-(3-methoxylphenyl)piperazin-1-yl)sulfonyl)ethyl)-10H-phenothiazine] and `CC(c1ccc2c(c1)Nc1ccccc1S2)S(=O)(=O)N1CCN(c2ccc(C(F)(F)F)cc2)CC1` (stereo not drawn) [Compound C56, 2-(1-((4-(4-(trifluoromethyl)phenyl)piperazin-1-yl)sulfonyl)ethyl)-10H-phenothiazine] are within 1.5-fold of each other in EC50: 165 nM for the first, 213 nM for the second.
